What was measured:
[1] = system: antibiotic-induced damage; settings: tumor cells and normal host tissues; cited from earlier work
[2] = system: antibiotic-induced free radical-mediated damage; settings: humans; cited from earlier work
doxorubicin lethality [3] = assay: Effects of methylene blue on doxorubicin toxicity, survival, Study No. 2 (Example II)
Procedure: (§1) Mice were obtained from Laboratory Supply Company, Inc., Indianapolis, Indiana. […] The light was maintained between 6:00 in the morning and 6:00 at night, and food and water were freely available. The rooms the mice were maintained in were sound insulated and kept at a constant relative humidity with a temperature ranging between 23° and 25° C. All animals were kept undisturbed except for a weekly cage cleaning, for 21 to 28 days after receipt from the animal supplier and prior to the experimentation. Four mice of the same sex were kept in each cage because of the well-known effects of isolation upon various biologic parameters. […] (See, Levi, F., Halberg, F., Haus, E., Sanchez, S., Sothern, R. B., Halberg, E., Hrushesky, W., Brown, H., Scheving, L. E., and Kennedy, B. J., "Synethetic Adrenocorticotropin for Optimizing Murine Circadian Chronotolerance for Adriamycin", CHRONOBIOLOGIA. 7(#2):227-244 (1980)).
(§2) The anthracycline antibiotic doxorubicin (NDC 38242-874-10, obtained from Adria Laboratories, Inc., Columbus, Ohio) was prepared to a concentration of 2 mg/ml in saline immediately prior to administration to the mice. Administration was by injection either intravenously through a transilluminated tail vein or intraperitoneally. The doxorubicin was administered in an amount per body weight of mouse of 18 mg/kg.
T-tests were used when comparing variances between two groups. […]

heart = assay: Cardiac evaluation / heart damage score and autopsy, Study No. 1 (Example II); format: in vivo, Balb/c female mice
Source text: A pathologist examined the heart of each mouse without prior knowledge of whether the animal received doxorubicin or placebo and methylene blue ur placebo. Cages were inspected twice daily for dead animals and autopsies were done immediately. The animals' hearts were washed in normal saline, fixed in formalin and embedded in glycol methacrylate. One-micron sections were inspected by light microscopy. The condition of the hearts was scored as follows: normal-1; slightly damaged-2; moderately damaged-3; severely damaged-4. Five specific categories or criteria were utilized for this evaluation: vacuolization; myofibrillar and nuclear degeneration; necrosis; interstitial edema; and interstitial inflammation. The numerical scores were averaged for each heart to yield an overall tabulation of damage.
In the course of this study, the cages were inspected twice daily for dead animals, and within twelve hours of death an autopsy was performed upon each animal that died. The heart was excised, inspected, washed in normal saline and fixed in 10% formalin. Upon terminatiun of this study, animals which had received no doxorubicin were killed by cervical dislocation and their hearts were handled in accordance with the procedures outlined earlier above.
Nonetheless, this difference in mean value was not statistically significant at the 5% level (f=2.3, p<0.1 and>0.05).

[4] = system: cardiac submitochondrial particles; settings: cited from earlier work
cellular proteins = assay: Examination of tissues after doxorubicin administration; settings: tissues subsequent to doxorubicin administration
Source text: The present inventor has likewise reasoned that the reduction of the oxidant stress-inducing antibiotics may be promoted by interaction with either NADH or NADPH, or their reducing proteins. […] It is therefore possible that the oxidation of NADH or NADPH may occur indirectly by the interaction of the antibiotic with these reducing proteins acting as mediators, either in addition to or in place of a direct interaction between the antibiotic and NADH or NADPH alone.

L1210 leukemia cells = assay: Effect of methylene blue on anti-neoplastic activity of doxorubicin (Example IV); format: in vivo, CD2 F1 female mice
Procedure: A strain of leukemia identified as L1210 was obtained from Arthur Bogden of the E. G. Mason Research Institute Animal and Human Tumor Bank, Worcester, Massachusetts. The tumor was kept in passage in DBA female mice. The tumor used for the below described experiments was between its tenth and twentieth in vivo passage. […] The tumor grows in ascites, which is initially clear and proceeds, within the 24 to 36 hours prior to death, to become hemorrhagic.
Accordingly, it was determined to assess tne anti-tumor efficacy of doxorubicin administered with and without methylene blue. For these studies, 120, 12 to 14 week old female CD2 F1 mice were each given 70,000 live L1210 leukemia cells 4 hours after the lights were turned on in the cages. The mice were then randomly assigned to one of seven treatment groups.

[5] = system: hepatic microsomes and heart sarcosomes; settings: cited from earlier work
[6] = Doxorubicin lethality, Balb/c mice; parameters: species or system Balb/c female mice; settings: mouse, in vivo
[7] = Doxorubicin lethality, CD2 F1 mice; format: in vivo
doxorubicin lethality [8] = assay: Effect of lesser doses of methylene blue on doxorubicin toxicity, survival (Example III)
Procedure: as §1, §2
T-tests were used when comparing variances between two groups. When the variance of means were compared among several groups, analysis of variance was used. Multivariate mean analysis was used when comparing groups of individuals sharing common characteristics which were anticipated might possibly affect the outcome of the statistical analysis. […] Chi-square analyses were used to compare survival percentages between and among various treatment groups at appropriate truncation points. Gehan-Wilcoxon Life Table Analyses were used to complement multivariate survival analyses in order to properly weight long-term survivors.

microsomal systems = settings: from NADPH and NADH; cited from earlier work
[9] = cited from earlier work
[10] = Effects of methylene blue on anthracycline toxicity, survival, Study No. 1 (Example II); settings: mouse, in vivo, 18 mg/kg
doxorubicin lethality [11] = assay: as above
[12] = previous studies in mice, dogs and humans; cited from earlier work
in vivo = settings: mouse, 550 mg/kg
hepatic GSH = assay: Effect of methylene blue on hepatic GSH levels (Example I); format: in vivo, CD2 F1 female mice; settings: 25 mg methylene blue iv; 4 h; 33 week old; n=9; saline 15.03±4.33; f=6.03, p<0.03
Procedure: Total glutathione, oxidized and reduced (GSSG and GSH respectively), was determined by a modification of the method of Tietze (Tietze, F., ANAL. BIOCHE., 27:502-522 (1969). GSH was determined by the method of Prins and Loos (Prins, H. K. and Loos, J. A., "In Biochemical Methods in Red Cell Genetics", J. Yunis, ed., Academic Press, New York, (1969)).
Because maintenance of GSH is an NADPH-dependent process, decrements in intracellular NADPH were postulated to lead to a decrease in GSH concentration. […] Hepatic GSH was similarly observed and noted to behave in corresponding fashion.

CC(=O)N[C@@H](CS)C(=O)O [N-acetyl cysteine]
protection from antibiotic-induced damage [1]: mixed results

Cc1c(C)c2c(c(C)c1O)CCC(C)(CCCC(C)CCCC(C)CCCC(C)C)O2 (stereo not drawn) [Vitamin E, α-tocopherol]
effect on antibiotic-induced damage at tolerable doses [2]: failed to work at tolerable doses in humans

COc1cccc2c1C(=O)c1c(O)c3c(c(O)c1C2=O)C[C@@](O)(C(=O)CO)C[C@@H]3O[C@H]1C[C@H](N)[C@H](O)[C@H](C)O1 [doxorubicin, 14-hydroxydaunomycin]
mean survival time, without methylene blue (doxorubicin lethality [3]; doxorubicin 18 mg/kg iv plus placebo, truncated at 130 days, n=7): 85 ± 7 days
visual appearance of hearts (heart; animals receiving doxorubicin): often pale and had a patchy fibrotic appearance
most prominent heart finding (heart; animals which did not receive methylene blue): degeneration of myocytes
pleural fluid, pulmonary consolidation and ascites (heart; autopsy, animals which had received doxorubicin): often present
heart damage score, without methylene blue (heart; doxorubicin 18 mg/kg, no methylene blue, normal score=1.0, f=2.3, p<0.1 and >0.05): 2.8±1.3
superoxide formation [4]: stimulates superoxide formation
complexation with cellular proteins (cellular proteins): some complexation
survival, doxorubicin and placebo (L1210 leukemia cells; 70,000 L1210 cells, doxorubicin and placebo): 14.4 ± 1.2 days
increased life span (L1210 leukemia cells; single doxorubicin treatment 3 days after tumor implantation, F=124, p<0.001): 160%
oxygen consumption [5]: increases oxygen consumption
mortality at 720 h ([6]; 18 mg/kg ip, 30 days, Balb/c female, read-out: mortality within 30 days, intraperitoneal): 100%
mortality ([6]; 18 mg/kg iv, Balb/c): ~100%
survival of CD2 F1 relative to Balb/c mice ([7]; 18 mg/kg iv, compared with Balb/c mice): more than 3 times longer
mortality at 720 h ([7]; mouse, in vivo, 18 mg/kg ip, 30 days, CD2 F1, read-out: mortality within 30 days, intraperitoneal): > 80%
mortality ([7]; mouse, in vivo, 18 mg/kg iv, CD2 F1): ~100%
average survival, doxorubicin intraperitoneally (doxorubicin lethality [8]; doxorubicin 18 mg/kg ip, f=27.4, p<0.001): 6.2 ± 0.8 days
average survival, saline placebo (doxorubicin lethality [8]; doxorubicin 18 mg/kg iv or ip plus saline placebo, f=10.8, p<0.001): 7.2 ± 0.6 days
mortality (doxorubicin lethality [8]; doxorubicin 18 mg/kg iv or ip, with methylene blue or saline): All of the mice succumbed to doxorubicin
average survival, doxorubicin intravenously (doxorubicin lethality [8]; doxorubicin 18 mg/kg iv, f=27.4, p<0.001): 11.2 ± 0.6 days
free radical production (microsomal systems): causes the production of free radicals
solubility [9]: soluble in water, methanol and other aqueous alcohols but is practically insoluble in acetone, benzene, chloroform, ethyl ether and petroleum ether
mortality at 360 h [10]: > 50%
effect of route of administration of doxorubicin (doxorubicin lethality [11]; doxorubicin 18 mg/kg iv vs ip, two-way analysis of variance): no significant effect of the particular route of administration

CN(C)c1ccc2nc3ccc(=[N+](C)C)cc-3sc2c1 [methylene blue, methylthionine chloride]
average survival, with methylene blue (doxorubicin lethality [3]; doxorubicin 18 mg/kg iv plus methylene blue 4 x 25 mg/kg (iv, then ip 1, 3, 6 h), 130 days, n=8, t=4.0, p<0.001): 113 ± 0.5 days
pleural fluid, pulmonary consolidation and ascites (heart; animals killed after saline and/or methylene blue only): never
visual appearance of hearts (heart; animals not receiving doxorubicin (saline and/or methylene blue)): appeared visually normal
heart damage score, with methylene blue (heart; doxorubicin 18 mg/kg plus methylene blue iv, normal score=1.0, f=2.3, p<0.1 and >0.05 (not significant)): 1.8±0.9
survival, doxorubicin followed by methylene blue (L1210 leukemia cells; 70,000 L1210 cells, doxorubicin followed by methylene blue 25 mg/kg iv 30 min after, then sc 1.5-48 h): 14.7 ± 0.5 days
tolerability at 25 mg/kg [12]: well tolerated
mortality (in vivo): 50%
average survival, with methylene blue (doxorubicin lethality [8]; doxorubicin 18 mg/kg iv or ip plus methylene blue 25 mg/kg iv, f=10.8, p<0.001): 10.3 ± 1 days
mean hepatic GSH levels (hepatic GSH): 9.30±5.50 μMol/g protein
survival, methylene blue without doxorubicin (doxorubicin lethality [11]; saline and methylene blue iv, no doxorubicin, study follow-up period): lived throughout the study follow-up period
